pIC50: −log10 of the molar value.
What was measured:
[1] = target: DPP1 in HL-60 cells (Homo sapiens, UniProt P53634); assay: DPP1 Cell Single-Point Percent Inhibition Testing; type: cell-based; parameters: host or cells: HL-60 cells; details: final compound concentration 5 nM, n = 1
Procedure, shortened: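 HL-60 cells in unsupplemented RPMI preincubated 60 min at 37 °C with test article (5 nM final, 0.1% DMSO), then given cell-permeable H-Gly-Phe-AFC (100 μM final) for 30 min. Fluorescence at 400/505 nm; percent inhibition versus vehicle after subtracting cell-free background and 10 μM brensocatib non-specific signal.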

[2] = target: T1, human DPP1 enzyme (Homo sapiens, UniProt P53634); assay: Human DPP1 Enzyme IC50 Assay; type: biochemical; parameters: was first proteolytically processed into its mature form using recombinant human cathepsin L; purchased R&D Systems; details: activated recombinant human DPP1, 400 μM H-Gly-Arg-AMC, 10 minutes pre-incubation at 37° C., pH 6.0; average of n runs; read-out: Avg. IC50 (Human DPP1 enzyme IC50 value ranges)
Procedure, shortened: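 Recombinant human DPP1, pre-activated with cathepsin L (pH 4.5), was preincubated with compound 10 min at 37 °C in MES pH 6.0, 50 mM NaCl, 5 mM DTT, 1% DMSO. Cleavage of 400 μM (final) H-Gly-Arg-AMC followed by fluorescence (350/450 nm) over 90 min at 37 °C; IC50 from four-parameter logistic fit versus no-compound control.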
Target sequence in this assay (P53634 25-134 limits assumed): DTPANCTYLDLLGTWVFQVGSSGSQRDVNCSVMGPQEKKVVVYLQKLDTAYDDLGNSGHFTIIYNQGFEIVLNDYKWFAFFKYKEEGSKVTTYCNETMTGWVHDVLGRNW
Target sequence in this assay (P53634 231-394 limits assumed): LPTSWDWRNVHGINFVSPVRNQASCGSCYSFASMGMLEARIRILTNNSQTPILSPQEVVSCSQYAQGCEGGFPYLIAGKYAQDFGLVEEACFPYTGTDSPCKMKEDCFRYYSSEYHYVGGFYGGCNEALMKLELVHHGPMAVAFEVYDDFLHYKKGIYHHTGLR
Target sequence in this assay (P53634 395-463 limits assumed): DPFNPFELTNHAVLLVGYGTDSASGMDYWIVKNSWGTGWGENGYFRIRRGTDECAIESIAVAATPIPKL

[3] = target: T1, human DPP1 enzyme; assay: Human DPP1 Enzyme Single-Point Percent Inhibition Testing (HL-60 lysate); type: biochemical; parameters: A crude lysate of HL-60 cells (ATCC; Manassas, VA) was used as a source of human DPP1 enzyme; host or cells: HL-60 cells (crude lysate); details: final compound concentration of 10 nM, 400 μM H-Gly-Arg-AMC, n = 1
Procedure, shortened: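 Enzyme source was HL-60 cell lysate in MES pH 6.0 buffer with NaCl and DTT, pre-incubated 10 min at 37° C with 10 nM compound (final, 1% DMSO). Cleavage of 400 μM H-Gly-Arg-AMC was followed at 350/450 nm over 90 min at 37° C, and percent inhibition was taken against vehicle wells.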
Target sequence in this assay (P53634 25-463): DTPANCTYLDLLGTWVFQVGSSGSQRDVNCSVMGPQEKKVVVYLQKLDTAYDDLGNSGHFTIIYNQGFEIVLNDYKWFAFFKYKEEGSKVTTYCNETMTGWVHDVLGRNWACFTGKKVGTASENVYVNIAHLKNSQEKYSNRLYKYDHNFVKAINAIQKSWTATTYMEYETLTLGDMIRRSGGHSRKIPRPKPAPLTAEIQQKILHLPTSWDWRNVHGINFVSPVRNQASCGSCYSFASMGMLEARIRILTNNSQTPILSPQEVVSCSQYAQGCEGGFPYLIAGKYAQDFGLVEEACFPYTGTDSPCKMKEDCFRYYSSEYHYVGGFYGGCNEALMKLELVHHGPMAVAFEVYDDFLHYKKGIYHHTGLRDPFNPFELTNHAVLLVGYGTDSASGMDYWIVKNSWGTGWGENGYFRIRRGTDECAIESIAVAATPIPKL

Sequence of DPP1 in HL-60 cells (P53634 25-463): as above

Compound: N#C[C@H](Cc1ccc(-c2cnc3c(n2)CCCC3)cc1)NC(=O)[C@@H]1CNCCCO1 [Compound A11, (2S)—N-[(1S)-1-cyano-2-[4-(5,6,7,8-tetrahydroquinoxalin-2-yl)phenyl]ethyl]-1,4-oxazepane-2-carboxamide]
- inhibition at 0.005 µM [1]: ≤ 76.5%
- pIC50 [2]: < 7.82
- inhibition at 0.01 µM [3]: ≤ 40%

Compound: CN1CCCC2(C1)C(=O)N(C)c1ccc(-c3ccc(C[C@@H](C#N)NC(=O)[C@@H]4CNCCCO4)cc3)cc12 (stereo partly drawn) [Compound 18, (2S)—N-[(1S)-1-cyano-2-(4-{1,1′-dimethyl-2-oxospiro[indole-3,3′-piperidin]-5-yl}phenyl)ethyl]-1,4-oxazepane-2-carboxamide]
- inhibition at 0.005 µM [1]: ≤ 76.5%
- pIC50 [2]: < 7.82
- inhibition at 0.01 µM [3]: ≤ 40%

From patent US20260008760A1, “DIPEPTIDYL PEPTIDASE 1 INHIBITORS AND USES THEREOF” (Insmed Incorporated, priority 2024, published 2026)
